Experimental data as given in patent publication US4568545A, “Thrombolytic agent” (Amano Seiyaku Kabushiki Kaisha, priority 1982, dated 1986).

Tested on: thrombi formed from blood of a healthy adult
Experiment: Thrombolytic activity by the Chandler's loop method
Format: biochemical, human
Conditions: 60 minutes, 37° C.
Method: Determination of the thrombolytic activity by the Chandler's loop method: the test solution and control solution were prepared by dissolving the protease and urokinase (a product by Otsuka Seiyaku Co.), respectively, in a physiological saline solution. […] The reference solution for the blank test was the physiological saline solution.
Formation of thrombi and measurement of the dissolution thereof were performed in the following manner. Thus, 0.8 ml of the above obtained fresh blood admixed with sodium citrate and 0.1 ml of a 3% aqueous solution of calcium chloride as CaCl2 ·2H2 O were introduced into a tube of polyvinyl chloride resin having an inner diameter of 3 mm and a length of 250 mm and the ends of the tube were connected to each other to form a loop which was put coaxially on a turntable inclined at an angle of 60° and rotated at 37° C. for 30 minutes at a velocity of 17 r.p.m. to form thrombi therein. Thereafter, 0.1 ml of one of the protease solutions, the urokinase solution or the reference solution was introduced into the loop which was rotated under the same conditions as above for 60 minutes. The thrombi remaining in the tube were then taken out and, after fixing with a Bouin's reagent, i.e. a solution prepared by adding 25 ml of a commercially available formalin solution and 5 ml of glacial acetic acid to 75 ml of a saturated aqueous solution of picric acid, the weight of the wet thrombi was measured.

Urokinase
% Thrombolysis (concentration in blood 50 Iu/ml blood): 8.0%
% Thrombolysis (concentration in blood 100 Iu/ml blood): 39.8%
% Thrombolysis (concentration in blood 150 Iu/ml blood): 49.7%
% Thrombolysis (concentration in blood 200 Iu/ml blood): 60.3%
% Thrombolysis (concentration in blood 250 Iu/ml blood): 66.4%
